Among the test systems are LOX IMVI; UACC-257; RPMI-8226; OVCAR-5; SF-539; MOLT-4; SF-295; MDA-N; SK-OV-3; TK-10; EKVX; COLO 205; K562; CAKI-1; UACC-62; HCT-15; MCF7; ACHN.
Holding throughout (test): inhibition of tumour cell growth, NCI panel, 48 h

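Dose response: 5 concentrations. Exposure: 48 h. Format: 96-well plates. Endpoint: linear interpolation; highest concentration if not reached. At the GI50, growth is halved.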 Activity calls are given as the source filed them. No stated cut-off is given here; in the data, active = GI50 up to about 1.1 µM and inactive = higher.

`C=C1C(=O)[C@@]23CC[C@@H]4[C@@]5(C)CCC[C@@]4(OC5=O)[C@@]2(C)CC[C@@H]1C3`: the GI50 with LOX IMVI was 0.422 µM (active); in the test with UACC-257, 1.49 µM (inactive); in the test with RPMI-8226 it was 0.508 µM (active); in the test on OVCAR-5, 2.12 µM (inactive); with SF-539 it was 2.12 µM (inactive); with MOLT-4, 1.75 µM (inactive). For the same compound, the GI50 in the test on SF-295 is 5.06 µM (inactive); in the test with MDA-N, 1.87 µM (inactive); in the test on SK-OV-3, 9.23 µM (inactive); in the test on TK-10 it was 1.11 µM (active); with EKVX, 3.15 µM (inactive); with COLO 205, 2.11 µM (inactive). Also, the GI50 in the test with K562 was 0.667 µM (active); with CAKI-1, 0.863 µM (active); in the test with UACC-62 it was 1.48 µM (inactive); with HCT-15 it was 0.67 µM; in the test on MCF7, 0.893 µM (active); in the test on ACHN it was 1.24 µM (inactive).
As for `O=C1C(NCCc2cc(Br)c(O)c(Br)c2)=CC(=O)c2ncccc21`, the GI50 in the test on LOX IMVI is 1.78 µM (inactive); in the test with UACC-257, 2.88 µM (inactive); in the test with RPMI-8226 it was 4.79 µM (inactive); with OVCAR-5 it was 6.52 µM (inactive); in the test with SF-539, 2.37 µM (inactive); with MOLT-4, 6.71 µM (inactive). Also, the GI50 was 2.34 µM (inactive) with SF-295; 1.82 µM (inactive) with MDA-N; 14.8 µM (inactive) with SK-OV-3; 17.1 µM (inactive) in the test on TK-10; 16.3 µM (inactive) in the test with EKVX; 5.7 µM (inactive) with COLO 205. In addition, the GI50 with K562 is 3.21 µM (inactive); in the test with CAKI-1, 7.29 µM (inactive); with UACC-62 it was 1.83 µM (inactive); in the test with HCT-15, 5.79 µM; with MCF7 it was 4.09 µM (inactive); in the test on ACHN it was 6.38 µM (inactive).
`Cn1cccc1-c1ccc(-c2ccc(CO)[se]2)[se]1`: the GI50 in the test with LOX IMVI was 19.1 µM (inactive); in the test on RPMI-8226 it was 7.98 µM (inactive); with OVCAR-5 it was 53.5 µM (inactive); with SF-539, 11.5 µM (inactive); in the test with MOLT-4, 8.79 µM (inactive); in the test with SF-295, 10.7 µM (inactive). Further, the GI50 with MDA-N was 8.53 µM (inactive); with SK-OV-3 it was 22.1 µM (inactive); in the test with TK-10, 28.1 µM (inactive); in the test with EKVX, 61.1 µM (inactive); in the test with COLO 205 it was 11.4 µM (inactive); in the test with K562, 0.986 µM (active). Moreover, the GI50 in the test on CAKI-1 was 0.188 µM (active); with UACC-62 it was 9.57 µM (inactive); with HCT-15, 12.6 µM; with MCF7, 0.906 µM (active); in the test with ACHN, 38.9 µM (inactive).
Take `COc1cc(C2SC(=N)Nc3c2c(C)nn3C(=O)Cc2ccccc2)cc(OC)c1OC` (stereo not drawn): the GI50 with LOX IMVI, with UACC-257, in the test with RPMI-8226, with SF-539, with MOLT-4 and with SF-295 was > 100 µM (inactive) each time. Further, the GI50 in the test on MDA-N, with SK-OV-3, in the test on TK-10, in the test with EKVX, in the test with COLO 205 and in the test with K562 was > 100 µM (inactive) each time. The GI50 in the test on CAKI-1 is > 100 µM (inactive); in the test on UACC-62, > 100 µM (inactive); in the test with HCT-15 it was over 100 µM; with MCF7, > 100 µM (inactive); with ACHN it was > 100 µM (inactive).
`CC[C@@]1(O)C(=O)OCc2c1cc1n(c2=O)Cc2c-1nc1ccc(O)cc1c2[Si](C)(C)C(C)(C)C` [AR-67]: the GI50 was < 0.01 µM (active) in the test on LOX IMVI; < 0.0149 µM (active) in the test on UACC-257; < 0.0152 µM (active) in the test on RPMI-8226; 0.139 µM (active) with OVCAR-5; < 0.01 µM (active) in the test with SF-539; < 0.01 µM (active) in the test with MOLT-4. For the same compound, the GI50 in the test on MDA-N is < 0.0132 µM (active); in the test on SK-OV-3 it was 0.557 µM (active); in the test on TK-10, 0.443 µM (active); in the test on EKVX, 0.333 µM (active); in the test with COLO 205, 0.031 µM (active); in the test with K562, < 0.0219 µM (active). The GI50 is < 0.01 µM (active) in the test on CAKI-1; < 0.01 µM (active) in the test on UACC-62; 0.122 µM in the test with HCT-15; < 0.01 µM (active) in the test on MCF7; < 0.01 µM (active) in the test with ACHN.
As to `Cc1ccc(S(=O)(=O)N/N=C2\C3CC4CC(C3)C2C4)cc1` (stereo not drawn), the GI50 in the test on LOX IMVI, in the test with UACC-257, in the test on RPMI-8226, with OVCAR-5, with SF-539 and with MOLT-4 was > 100 µM (inactive) each time. Moreover, the GI50 with SF-295, with MDA-N, in the test on SK-OV-3, in the test with TK-10, in the test with COLO 205 and with K562 was > 100 µM (inactive) in each case. Moreover, the GI50 in the test on CAKI-1 is > 100 µM (inactive); in the test with UACC-62 it was > 100 µM (inactive); with HCT-15 it was over 100 µM; in the test on MCF7, > 100 µM (inactive).
On to `O=C1Nc2ccccc2/C1=N/NC(=S)N1CCCCC1`, for which the GI50 was 0.418 µM (active) in the test with LOX IMVI; 0.299 µM (active) with RPMI-8226; 4.05 µM (inactive) with OVCAR-5; 0.082 µM (active) in the test on SF-539; 0.354 µM (active) in the test with MOLT-4; 0.256 µM (active) in the test on SF-295. Moreover, the GI50 is 1.48 µM (inactive) with MDA-N; 2.01 µM (inactive) in the test with SK-OV-3; 0.295 µM (active) in the test on TK-10; 1.31 µM (inactive) in the test on EKVX; 0.774 µM (active) in the test on COLO 205; 0.904 µM (active) in the test on CAKI-1. Moreover, the GI50 in the test with UACC-62 was 1.15 µM (inactive); in the test with HCT-15 it was 0.19 µM; with MCF7, 1.5 µM (inactive); with ACHN it was 0.397 µM (active).
For the compound `COc1ccccc1OC(=O)/C=C/c1ccccc1`, the GI50 with LOX IMVI is > 100 µM (inactive); in the test with UACC-257, 35.8 µM (inactive); with RPMI-8226, 5.33 µM (inactive); in the test on OVCAR-5 it was > 100 µM (inactive); in the test with SF-539, > 100 µM (inactive); in the test on MOLT-4, 17.4 µM (inactive). Also, the GI50 is 40.2 µM (inactive) in the test with SF-295; > 100 µM (inactive) in the test on MDA-N; > 100 µM (inactive) with SK-OV-3; 84.1 µM (inactive) with TK-10; > 100 µM (inactive) with EKVX; > 100 µM (inactive) in the test on COLO 205. Also, the GI50 is > 100 µM (inactive) in the test on CAKI-1; > 100 µM (inactive) in the test on UACC-62; over 100 µM with HCT-15; > 100 µM (inactive) with MCF7; > 100 µM (inactive) in the test with ACHN.
For the compound `CCCCCCCCCCCCCCCCCCNc1ccn(C2OC(CO)C(OP(=O)(O)OCC(O)COP(=O)(O)OCC3OC(n4cc(F)c(NCCCCCCCCCCCCCCCCCC)nc4=O)CC3O)C2O)c(=O)n1` (stereo not drawn), the GI50 in the test on LOX IMVI, with UACC-257, in the test on RPMI-8226, in the test on OVCAR-5, with SF-539 and with SF-295 was > 50 µM (inactive) throughout. In addition, the GI50 in the test on MDA-N, with SK-OV-3, with TK-10, with EKVX, in the test on COLO 205 and in the test with K562 was > 50 µM (inactive) throughout. The GI50 was > 50 µM (inactive) with CAKI-1; > 50 µM (inactive) in the test on UACC-62; over 50 µM with HCT-15; > 50 µM (inactive) in the test with MCF7; > 50 µM (inactive) in the test on ACHN.

These data come from ChEMBL document CHEMBL1201862, “PubChem BioAssay data set” (2004).
